Key:
NS-1 myeloma cells [1] = test: NS-1 myeloma in inoculated mice, early intervention; assay type: in vivo
Excerpt: To assure NS-1 propagation in vivo it is essential to remove DMSO (the cryostatic agent dimethyl sulfoxide) through several medium changes and dilutions; this also serves to maintain the cells in log-phases growth. […] The mice were maintained with Wayne Rodent Blox (Wayne Research Animal Diets, Chicago, Ill., USA) ad lib. and tap water.
The inoculated mice were compared to a) untreated controls and b) to carrier-injected (saline-injected) controls.

NS-1 myeloma cells [2] = assay type: in vivo; settings: single mouse, 100 μg/kg; tumor cells remained in skeletal muscle, subcutaneous tissue, a mammary gland
Experimental: NS-1 myeloma cells (ATCC TIB 18, P3/NS1/1-Ag4-1) were employed as inoculant; these cells have proven to be about 90% effective in establishing myelomas in mice according to the exemplified procedure, and the untreated myelomas are substantially fatal within about two weeks.
The cells were grown for several passages (preferably one week) in a sterile environment consisting of RPMI 1640 (Whittaker M. A. Bioproducts, Walkersville, Md., USA) containing 10% fetal calf serum (Hyclone Laboratories, Logan, Utah, USA), 2 mM L-glutamine, 5,000 units of penicillin, and 5 mg streptomycin in 75 cm^2 polystyrene tissue-culture flasks (Corning Glassworks, Corning, N.Y., USA) in a humidified chamber at 37° C. and under 6% CO2. To assure NS-1 propagation in vivo it is essential to remove DMSO (the cryostatic agent dimethyl sulfoxide) through several medium changes and dilutions; this also serves to maintain the cells in log-phases growth. […]
Wasting of the tumor and not the mouse proper was confirmed by weighing the debulked carcass. […] It was thus tentatively determined that the bone demineralized due to rapid growth of the tumor resulting in the fracture, a process which requires calcium and phosphate, and which would also explain the subsequent rapid extraskeletal deposition of calcium phosphate as the tumor was resorbed.

Murine hepatocytes = test: Adaptation of culture-resistant hepatocytes to culture (colony count); assay type: cell-based, BALBc/J mice
Excerpt: FIG. 4 illustrates data from a single experiment designed to study the use of β-alethine for adapting cells to culture. The culture-resistant cells employed (hepatocytes) were taken from in vivo to in vitro growth. Murine hepatocytes were chosen owing to their being especially difficult to adapt to culture. […] In this experiment a single liver lobe from one of the BALBc/J mice was excised, pressed through a 90 mesh stainless steel screen, washed, and placed in T-25 tissue culture flasks (10 for LUX, Flow General, McClean, Md., USA). All cultures were maintained in 10 ml of the same medium as described in Example III (RPMI-1640 plus fetal calf serum plus pen/strep plus L-glutamine) and the test cultures exposed to various concentrations of β-alethine as indicated in FIG. 4. […] It was possible to obtain some viable colonies from the control cultures, but only if 10- to 20-fold higher initial cell concentrations were used; therefore the β-alethine was between 500- and 1000-fold more efficient in adapting murine hepatocytes to in vitro culture than control, i.e., saline-treated medium. […] The effect is again dose-dependent, as illustrated.

[3] = system: IMR-90 human fetal lung fibroblasts; test: Maximum population doubling level (PDL) of IMR-90 fibroblasts, delay of cellular senescence; assay type: cell-based
Excerpt: This cell line is available from the American Type Culture Collection (ATCC, Bethesda, Md., USA) and is used as a standard for in vitro cellular senescence studies. Cellular senescence is loosely defined as those cellular process(es) that together result in the cell's inability to replenish itself in culture. This model represents aging processes in vivo, and cell lines developed from humans of different ages have PDL's in vitro which are inversely related to the chronological age of the donor. The IMR-90 cells depicted in FIG. 1 were grown under ideal conditions in McCoy's 5A synthetic medium supplemented with HEPES buffer at 10 mM; 100 units penicillin G/ml and 100 μg streptomycin/ml at standard concentrations; new born calf serum (NBCS) at 20% (V/V); and L-glutamine at 2 mM. The treated cell cultures were augmented with different concentrations of β-alethine (as indicated) dissolved in phosphate-buffered saline (PBS)—-always in a standard volume of 30 microliters per culture. […] The cells were then washed twice with the complete medium and counted in a double Neubauer hemacytometer; 2 million cells were aliquoted into a fresh tissue culture flask (T-75, polystyrene by LUX, Flow General, McClean, Md., USA) with 20 ml of fresh complete medium. […]

[4] = system: human peripheral blood leukocytes (HPBLs); test: Non-antigen-specific immunoglobulin synthesis and secretion by HPBLs, protein-A facilitated plaque assay (Ig-PFC); assay type: cell-based
Excerpt: FIG. 2 illustrates data from a series of experiments designed to assess the effect of β-alethine on non-antigen-specific immunoglobulin synthesis and secretion in vitro by human peripheral blood leukocytes (HPBLs), generally characterized as a peripheral lymphoid organ primarily populated by medium-sized, mature lymphocytes. In these experiments, blood was taken from healthy male humans; the blood was then defibrinated on glass beads, and the leukocytes separated by centrifugation (buffy coat technique). Residual red blood cells were lysed with a brief treatment with 0.85% ammonium chloride. The leukocytes were counted and dispensed into 24 well tissue culture trays (LUX, Flow General, McClean, Md., USA) in 1 ml of RPMI 1640 basal medium supplemented with penicillin, streptomycin, 10% fetal calf serum, and L-glutamine. β-alethine was added to test cultures at various concentrations in 30 microliter doses. The cells were harvested as indicated in FIG. 2 at various times between 72 and 144 hours of culture and tested for antibody production using a conventional protein-A facilitated plaque assay (A-PFC or Ig-PFC). […] In addition, aliquots of cells were also tested for proliferation status by treating them with 0.5 μCi of tritiated thymidine (6-9 Ci/mole) followed by assessing the level of incorporation of radioactivity into newly synthesized DNA. […]

[5] = The Merck Index, 9th edition (#221); cited from earlier work
[6] = i.p., Monday, Wednesday, Friday from day 2 through day 47

With `NCCC(=O)NCCSSCCNC(=O)CCN` [β-alethine, N,N′-bis-(β-alanyl-2-aminoethyl) Disulfide] the deaths (NS-1 myeloma cells [1]; 10 pg/kg mouse) was “two deaths”, the “normal weight gain of the mice” value (NS-1 myeloma cells [1]; 10 μg/kg) was “not significantly” and the “persistence of the palpable tumor before regression” value (NS-1 myeloma cells [1]; 10 μg/kg, one mouse) was 20 days. For the same compound, the “normal weight gain of the mice” value (NS-1 myeloma cells [1]; 100 μg/kg) was “slightly inhibited”, the “fraction of animals that ultimately contracted tumor” value (NS-1 myeloma cells [1]; at about 10 pg/kg or 1 ng/kg, without treatment 75% euthanized or died) was “one-third to two-thirds” and the “mice developing a palpable tumor” value (NS-1 myeloma cells [1]; at about 10 μg/kg or 100 μg/kg) was “only one mouse developed a palpable tumor”. For the same compound, the “therapeutic minimal threshold (lower end of effective range) for preventing onset of NS-1 myeloma” value (NS-1 myeloma cells [1]; [6]) was 10 pg/kg mouse, the “upper end of effective concentration range for preventing onset of NS-1 myeloma” value (NS-1 myeloma cells [1]; [6]) was 100 μg/kg mouse and the “morphology of tumors developing under therapy” value (NS-1 myeloma cells [1]; untreated controls typically developed ascites) was “with few exceptions solid masses”. The “tumor cells in remaining organs (histology)” value (NS-1 myeloma cells [2]) was “none of the remaining organs contained tumor cells”, the “colonies of hepatocytes observed” value (Murine hepatocytes; 10 ng/ml, no colonies in the control culture) was “approximately 50 colonies” and the “stability of treated cells in culture” value (Murine hepatocytes; long-term culture, in contrast to control cells) was “stable in culture”. The “increase in cell number (biomass)” value ([3]; absolute terms, factor of 2 raised to the power 55) was 3.6×10^16 fold, the “life expectancy of the cells” value ([3]; augmentation of growth versus untreated cells) was “doubling of the life expectancy” and the “optimal concentration for immunoglobulin production” value ([4]; HPBLs) was “about 5 nanograms/ml culture”. For the same compound, the “immunoglobulin production relative to untreated control” value ([4]; dose-dependent, 72 to 144 hours of culture) was “approximately 60 times the untreated control levels”.
In the case of `NCCC(=O)NCCS` [β-aletheine], the “stability in air and aqueous solutions” value [5] is given as “unstable in air and aqueous solutions”.

— patent publication US20040110680A1, “Beta-alethine use in cell culture and therapy” (Regents of the University of New Mexico, priority 1990, published 2004)
